Patent US10421778B2, “Isoform-selective lysine deacetylase inhibitors” (WASHINGTON UNIVERSITY, priority 2015, dated 2019)
Marks after values point to notes of the source that are not given here.

Assays:
Test in all cases: KDAC inhibition assay, Caliper EZ Reader II
Assay type in all cases: biochemical
Details in all cases: % inhibition at 30 μM
recombinant human KDAC8 = biological target: T1, recombinant human KDAC8 (Homo sapiens, UniProt Q9BY41)
T1 construct: purchased BPS Bioscience
T1 sequence (Q9BY41 1-377): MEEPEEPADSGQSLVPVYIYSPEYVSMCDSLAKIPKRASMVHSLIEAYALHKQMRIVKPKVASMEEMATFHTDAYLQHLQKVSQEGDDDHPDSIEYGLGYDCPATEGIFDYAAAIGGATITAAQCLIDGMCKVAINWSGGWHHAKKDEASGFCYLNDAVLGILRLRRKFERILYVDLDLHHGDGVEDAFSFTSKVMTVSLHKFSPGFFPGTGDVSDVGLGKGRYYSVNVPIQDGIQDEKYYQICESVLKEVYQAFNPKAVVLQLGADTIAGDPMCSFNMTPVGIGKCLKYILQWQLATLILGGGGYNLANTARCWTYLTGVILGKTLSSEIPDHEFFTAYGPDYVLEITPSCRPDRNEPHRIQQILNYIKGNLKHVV

recombinant human KDAC1 = biological target: T2, recombinant human KDAC1 (Homo sapiens, UniProt Q13547)
T2 construct: purchased BPS Bioscience

recombinant human KDAC6 = biological target: T3, recombinant human KDAC6 (Homo sapiens, UniProt Q9UBN7)
T3 construct: purchased BPS Bioscience
T3 sequence (Q9UBN7 1-1215): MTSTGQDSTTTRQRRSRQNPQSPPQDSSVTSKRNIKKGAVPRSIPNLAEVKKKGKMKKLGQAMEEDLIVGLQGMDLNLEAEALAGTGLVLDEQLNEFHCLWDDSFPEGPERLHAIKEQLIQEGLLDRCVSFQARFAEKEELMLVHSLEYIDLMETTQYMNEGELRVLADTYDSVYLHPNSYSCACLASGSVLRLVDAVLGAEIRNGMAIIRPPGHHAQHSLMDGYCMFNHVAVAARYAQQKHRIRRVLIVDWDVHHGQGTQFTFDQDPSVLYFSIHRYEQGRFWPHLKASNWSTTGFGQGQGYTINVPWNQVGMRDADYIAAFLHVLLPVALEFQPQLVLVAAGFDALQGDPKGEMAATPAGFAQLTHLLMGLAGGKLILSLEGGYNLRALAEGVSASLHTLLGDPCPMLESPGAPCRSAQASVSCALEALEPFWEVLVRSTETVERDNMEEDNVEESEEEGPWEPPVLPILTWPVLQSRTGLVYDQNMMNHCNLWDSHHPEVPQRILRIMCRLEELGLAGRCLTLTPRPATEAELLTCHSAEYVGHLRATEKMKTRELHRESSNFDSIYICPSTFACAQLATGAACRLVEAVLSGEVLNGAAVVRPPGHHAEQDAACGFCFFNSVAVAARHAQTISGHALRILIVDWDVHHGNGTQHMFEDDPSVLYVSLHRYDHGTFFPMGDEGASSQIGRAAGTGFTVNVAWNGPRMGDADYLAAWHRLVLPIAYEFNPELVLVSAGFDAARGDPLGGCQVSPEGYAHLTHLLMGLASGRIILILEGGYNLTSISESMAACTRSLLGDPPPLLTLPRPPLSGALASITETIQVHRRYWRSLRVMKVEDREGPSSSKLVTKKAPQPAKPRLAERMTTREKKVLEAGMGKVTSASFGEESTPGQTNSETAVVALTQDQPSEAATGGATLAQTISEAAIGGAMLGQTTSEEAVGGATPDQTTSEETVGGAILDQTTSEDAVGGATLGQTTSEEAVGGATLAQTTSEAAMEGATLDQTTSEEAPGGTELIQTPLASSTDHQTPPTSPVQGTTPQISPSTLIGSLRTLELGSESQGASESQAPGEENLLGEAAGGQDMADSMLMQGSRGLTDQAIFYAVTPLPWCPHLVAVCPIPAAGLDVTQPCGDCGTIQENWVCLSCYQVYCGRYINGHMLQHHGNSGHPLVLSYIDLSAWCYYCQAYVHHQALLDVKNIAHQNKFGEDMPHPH

recombinant human KDAC3 = biological target: T4, recombinant human KDAC3 (Homo sapiens, UniProt O15379)
T4 construct: purchased BPS Bioscience
T4 sequence (O15379 whole entry): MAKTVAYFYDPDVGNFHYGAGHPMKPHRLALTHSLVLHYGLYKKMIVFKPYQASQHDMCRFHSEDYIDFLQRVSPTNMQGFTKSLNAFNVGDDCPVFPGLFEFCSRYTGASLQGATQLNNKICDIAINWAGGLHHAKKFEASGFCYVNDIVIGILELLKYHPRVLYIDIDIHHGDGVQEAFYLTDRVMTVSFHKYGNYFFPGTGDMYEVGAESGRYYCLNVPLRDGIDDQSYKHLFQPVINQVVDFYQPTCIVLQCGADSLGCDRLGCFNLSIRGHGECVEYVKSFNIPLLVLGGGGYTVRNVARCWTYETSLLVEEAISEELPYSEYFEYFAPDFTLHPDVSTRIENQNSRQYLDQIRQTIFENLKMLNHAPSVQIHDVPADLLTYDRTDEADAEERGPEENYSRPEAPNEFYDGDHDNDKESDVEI
T4 sequence (Q9Y618 395-489 partner limits assumed): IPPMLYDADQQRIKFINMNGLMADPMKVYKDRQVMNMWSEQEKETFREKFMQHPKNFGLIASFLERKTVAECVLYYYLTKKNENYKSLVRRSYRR

T2 sequence (Q13547 whole entry): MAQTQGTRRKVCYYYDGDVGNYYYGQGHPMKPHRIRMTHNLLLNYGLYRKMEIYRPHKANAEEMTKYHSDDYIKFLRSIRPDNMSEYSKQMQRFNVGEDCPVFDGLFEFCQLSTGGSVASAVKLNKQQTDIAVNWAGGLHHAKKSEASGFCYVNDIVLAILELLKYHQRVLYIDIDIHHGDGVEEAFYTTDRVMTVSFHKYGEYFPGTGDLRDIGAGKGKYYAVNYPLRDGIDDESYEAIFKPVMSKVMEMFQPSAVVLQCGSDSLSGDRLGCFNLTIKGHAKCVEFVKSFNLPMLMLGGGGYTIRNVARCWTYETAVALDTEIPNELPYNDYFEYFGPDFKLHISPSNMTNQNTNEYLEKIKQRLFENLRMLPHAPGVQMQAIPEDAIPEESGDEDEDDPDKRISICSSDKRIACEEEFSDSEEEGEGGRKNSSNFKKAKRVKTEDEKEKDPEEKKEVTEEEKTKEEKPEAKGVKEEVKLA

Substance | KDAC Inhibition Activity KDAC8 (% inhibition) (recombinant human KDAC8) | KDAC Inhibition Activity KDAC1 (% inhibition) (recombinant human KDAC1) | KDAC Inhibition Activity KDAC6 (% inhibition) (recombinant human KDAC6) | KDAC Inhibition Activity KDAC3 (% inhibition) (recombinant human KDAC3)
Cyclo-Asp(^DPro-Pro-Val)-NHCH2CH2CH2SCH3 [Compound 7a] | 5% | Not active | 6% | Not active
Cyclo-Asp(^DPro-Pro-Val)-NHCH2CH2S—SCH2CH2NH2 [Compound 15a] | 1% | Not active | Not active | Not active
Cyclo-Asp(^DPro-Pro-Val)-NHCH2CH2CH2S(═O)2CH3 [Compound 9a] | 17% | Not active | Not active | 4%
Cyclo-^DAsp(^DPro-Pro-Val)-NHCH2CH2CH2OH [Compound 10b] | 25% | 1% | 1% | 9%
Cyclo-^DAsp(Pro-^DPro-Val)-NHCH2CH2SH [Compound 17b] | Not active | Not active | 18% | Not active
Cyclo-^DAsp(^DPro-Pro-Val)-NHCH2CH2CH2S(═O)CH3 [Compound 8b] | 38% | 3.5% | 3% | 5%
Cyclo-^DAsp(Pro-^DPro-Val)-NHCH2CH2CH2S(═O)CH3 [Compound 20b] | 10% | 1% | 1% | 16%
Cyclo-Asp(^DPro-Pro-Val)-NHCH2CH2CH2COOMe [Compound 12a] | Not active | 54.6% | Not active | 2%
Cyclo-^DAsp(Pro-^DPro-Val)-NHCH2CH2S—SCH2CH2NH2 [Compound 26b] | 4% | Not active | 13% | Not active
Cyclo-Asp(^DPro-Pro-Val)-NHCH2CH2CH2COOH [Compound 13a] | 3% | Not active | Not active | Not active
Cyclo-^DAsp(^DPro-Pro-Val)-NHCH2CH2CH2NH2 [Compound 16b] | 22%^a | 4.5% | 2%^a | 14%^a
Cyclo-^DAsp(Pro-^DPro-Val)-NHCH2CH2CH2SH [Compound 18b] | Not active | 9.5% | 48% | 15%
Cyclo-^DAsp(Pro-^DPro-Val)-NHCH2CH2CH2CONHOH [Compound 25b] | 31% | Not active | 6% | 13%
